Assay results published in patent US20260216057A1, “PHARMACEUTICAL COMPOSITIONS FOR HERPES VIRUS” (priority 2022, published 2026).

Legend:
[1] = Example 12: Compound 1 (Form A) aqueous suspension SC PK study in dog; format: in vivo, male non-naïve Beagle dogs; conditions: 10 mg/kg, following an initial drug burst
Protocol: An aqueous suspension of Compound 1 free form (Form A) in a 0.9% NaCl+0.5% poloxamer 188 vehicle at a concentration of 5.0 mg/mL was prepared as follows: • 1) Vehicle (0.9% w/w NaCl and 0.5% w/w poloxamer 188) was prepared by dissolving NaCl and poloxamer 188 in water. • 2) Appropriate amount of Compound 1 free form was weighed and added to the vehicle. • 3) The mixture was stirred for 15 minutes, then vortexed for 1 minute and then sonicated for 10 minutes. • 4) The final dosing formulation was a homogenous white cloudy suspension.
Male non-naïve beagles with ~10 kg body weight were used for the dog PK study. The animals had free access to food and water. The prepared suspension was administered via subcutaneous injection to each animal group (n=3) with a dosing volume of 2 mL/kg to achieve a 10 mg/kg dose.
At each time point, approximately 0.5 mL of whole blood was collected into K2EDTA tubes. Blood samples were put on ice and centrifuged at 2000 g for 5 min to obtain plasma samples within 15 minutes. Plasma samples were stored at approximately −70° C. until analyzed by LC-MS.

[2] = Example 1: pritelivir aqueous suspension SC PK study in rat; format: in vivo, male Sprague Dawley rats; conditions: aqueous suspension (dihydrate), 33.33 mg/kg and 166.67 mg/kg, both dosing levels
Protocol: The LC-MS methodology and conditions used to analyse pritelivir in plasma samples from the PK studies described in Examples 1 to 5 are provided in Table 1.
An aqueous suspension of crystalline pritelivir free base (dihydrate) in a 0.9% NaCl+0.5% polysorbate 80 vehicle at concentrations of 10.0 mg/mL and 50.0 mg/mL was prepared as follows: • 1) Vehicle (0.9% w/w NaCl and 0.5% w/w polysorbate 80) was prepared by dissolving NaCl and polysorbate 80 in water. • 2) Appropriate amount of crystalline pritelivir free base (dihydrate) was weighed and added to the vehicle. • 3) Mixture was vortexed for 1 minute, stirred for 10 minutes and then sonicated for 15 minutes. • 4) The final dosing formulation was a homogenous white cloudy suspension.
Male Sprague Dawley (SD) rats with ~300 g body weight (ages 6-8 weeks) were used for the pharmacokinetic study. The animals had free access to food and water. The pritelivir suspensions described above were administered via sub-cutaneous injection to each animal group (n=3) with a dosing volume of 3.33 mL/kg to achieve 33.33 mg/kg and 166.67 mg/kg doses.
At each time point, approximately 200 μL whole blood was collected in a K2EDTA tube via the jugular vein. Blood samples were put on ice and centrifuged at 2000 g for 5 min to obtain a plasma sample within 15 minutes. Plasma samples were stored at approximately −70° C. until analyzed by LC-MS.

| Compound | prolonged exposure out to [1] | prolonged exposure out to (length of the study) [2] |
| --- | --- | --- |
| Cc1nc(N2CCCN(c3ccc(-c4cc(F)ccc4F)cc3)C2=O)sc1S(N)(=O)=O [Compound 1, 2-(3-(2′,5′-difluoro-[1,1′-biphenyl]-4-yl)-2-oxotetrahydropyrimidin-1(2H)-yl)-4-methylthiazole-5-sulfonamide] | at least 220 days |  |
| Cc1nc(N(C)C(=O)Cc2ccc(-c3ccccn3)cc2)sc1S(N)(=O)=O [pritelivir, N-methyl-N-(4-methyl-5-sulfamoyl-1,3-thiazol-2-yl)-2-[4-(pyridin-2-yl)phenyl]acetamide] |  | at least 720 hours |
